Source: patent publication US10870660B2, “Nitrogen-containing condensed ring compounds having dopamine D3 antagonistic effect” (Shionogi & Co., Ltd., priority 2016, dated 2020)
pKi: −log10 of the molar value.

Experiments:
[1] = target: human recombinant dopamine D3 receptor (Homo sapiens (Human), UniProt P35462); experiment: Test of binding inhibition for the human dopamine D3 receptor ([3H]-Metylspiperone SPA binding); conditions: [3H]-Metylspiperone 2 nM, Jump-In HEK cell membranes, read-out: hD3_Ki
Description: Cell membranes: Jump-In HEK cell membranes expressing human recombinant dopamine D3 receptor (4 μg/well)
(§1) Non-specific ligand: (final concentration) 10 μM Butaclamol [(+)-Butaclamol Hydrochioride, D033, Sigma]
(§2) SPA beads: SPA beads [WGA PVT SPA Scintillatiion Beads, RPNQ0001 (500 mg), RPNQ0060 (2 g), PerkinElmer] (0.2 mg/well)
(§3) Incubation time and temperature: 120 min at 25° C.
(§4) Butaclamol or the compounds of the present invention were weighed and DMSO was added to make a 10 mM solution. This solution was diluted to each concentration.
[^3H]-Metylspiperone was weighed and the buffer solution was added to make a 6 nM solution.
(§5) SPA beads were weighed and stirred in water to make a 50 mg/mL solution. Using this solution, a mixed solution with the cell membranes was prepared.
Jump-In HEK Cell membranes (final reaction amount: 4 μg/well), SPA beads (final reaction amount: 0.2 mg/well) and Tris-HCl buffer were mixed and the mixed solution was left still for more than 60 min at 4° C. Then, 50 μL of the mixture was added to each well of the plate. In addition, 25 μL of 6 nM [^3H]-Metylspiperone (final concentration: 2 nM) was added to each well. […] Non-specific binding was calculated based on the radioactivity of [^3H]-Metylspiperone in the presence of 10 μM non-labeled Butaclamol. The total binding was calculated based on the radioactivity of [^3H]-Metylspiperone in the absence of the compounds of the present invention (Vehicle). The Ki values were calculated from dose-response curves.
(§6) Binding activities of the compounds of the present invention were calculated from the following Binding Inhibition Rate (%): Inhibition Rate (%)=[1−(c−a)(b−a)]×100(%) • a: Average cpm of non-specific binding • b: Average cpm of total binding • c: Cpm in the presence of each test compound

[2] = target: human recombinant dopamine D2 receptor (Homo sapiens (Human), UniProt P14416); experiment: Test of binding inhibition for the human dopamine D2 receptor ([3H]-Metylspiperone SPA binding); conditions: [3H]-Metylspiperone 1.2 nM, Jump-In HEK cell membranes, read-out: hD2_Ki
Description: Cell membranes: Jump-In HEK cell membranes expressing human recombinant dopamine D2 receptor (2 μg/well)
Buffer solution: 50 mM Tris-HCl (35409-45, Nacalai Tesque) (pH 7.4) containing 120 mM NaCl (31320-05, Nacalai Tesque), 1 mM MgCl2.6H2O (20909-55, Nacalai Tesque), 5 mM KCl (28514-75, Nacalai Tesque) and 2 mM CaCl2 (067-31, Nacalai Chemical, Ltd)
Radioligand: (final concentration) 1.2 nM [^3H]-Metylspiperone ([^3H—N-methyl-]-Metylspiperone, NET-856, 83.8 Ci/mmol, PerkinElmer)
as §1, §2, §3, §4
[^3H]-Metylspiperone was weighed and the buffer solution was added to make a 3.6 nM solution.
as §5
225 nL of the solutions of the non-specific ligand or the compounds of the present invention at each concentration (in case of vehicle, final concentration 0.3% DMSO) were added in each well of a 384-well white/clear bottom microplate (3706, Corning). Jump-In HEK Cell membranes (final reaction amount: 2 μg protein/well), SPA beads (final reaction amount: 0.2 mg/well) and the buffer were mixed and the mixed solution was left still for more than or equal to 1 h at 4° C. Then, 50 μL of the mixture was added to each well of the plate. In addition, 25 μL of 3.6 nM [^3H]-Metylspiperone (final concentration: 1.2 nM) was added to each well. The plate was sealed by putting TopSeal-A 96/384 well (6050185, PerkinElmer) on the top of the plate, mixed using stirring deaerator (Welltornado, FK-62, Sakaki) and incubated for 120 min at 25° C. After incubation, the radioactivity of [^3H]-Metylspiperone which was binded to D2 receptor was determined by liquid scintillation counter (1450 Microbeta, PerkinElmer) in each well. Non-specific binding was calculated based on the radioactivity of [^3H]-Metylspiperone in the presence of 10 μM non-labeled Butaclamol. The total binding was calculated using the radioactivity of [^3H]-Metylspiperone in the absence of the compounds of the present invention (Vehicle). The Ki values were calculated from dose-response curves.
as §6

human recombinant dopamine D2 receptor, sequence (P14416 whole entry): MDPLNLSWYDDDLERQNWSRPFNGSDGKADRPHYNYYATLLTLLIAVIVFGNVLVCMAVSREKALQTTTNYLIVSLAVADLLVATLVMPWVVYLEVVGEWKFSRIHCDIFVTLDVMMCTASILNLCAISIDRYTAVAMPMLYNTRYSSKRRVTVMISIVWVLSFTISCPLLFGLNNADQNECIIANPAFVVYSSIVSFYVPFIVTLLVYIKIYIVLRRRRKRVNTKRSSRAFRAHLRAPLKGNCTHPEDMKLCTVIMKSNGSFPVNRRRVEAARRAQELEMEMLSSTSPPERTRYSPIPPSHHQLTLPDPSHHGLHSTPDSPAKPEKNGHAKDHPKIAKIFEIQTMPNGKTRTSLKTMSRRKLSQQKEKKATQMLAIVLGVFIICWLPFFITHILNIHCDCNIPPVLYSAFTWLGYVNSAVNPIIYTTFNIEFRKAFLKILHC
human recombinant dopamine D3 receptor, sequence (P35462 whole entry): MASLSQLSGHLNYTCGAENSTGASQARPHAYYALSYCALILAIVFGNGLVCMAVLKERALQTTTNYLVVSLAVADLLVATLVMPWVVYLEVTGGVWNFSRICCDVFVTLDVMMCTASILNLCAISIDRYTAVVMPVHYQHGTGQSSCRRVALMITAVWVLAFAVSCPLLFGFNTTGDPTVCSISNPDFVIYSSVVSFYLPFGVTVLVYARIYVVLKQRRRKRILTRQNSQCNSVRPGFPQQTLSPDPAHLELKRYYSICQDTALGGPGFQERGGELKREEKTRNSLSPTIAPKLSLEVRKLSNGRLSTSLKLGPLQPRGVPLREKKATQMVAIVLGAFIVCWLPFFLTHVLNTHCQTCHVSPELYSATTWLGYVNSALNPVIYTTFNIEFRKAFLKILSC

SMILES | pKi [1] | pKi [2]
O=C(NCCCCN1CCc2ccc(OCC(F)(F)F)nc2CC1)c1cc2ccccc2[nH]1 [II-105] | 9.96 | 5.96
O=C(N[C@H]1CC[C@H](CCN2CCc3ccc(OCC(F)F)nc3C2)CC1)c1cccc2ncccc12 [Compound I-139] | 9.16 | < 5.77
Cc1nc(CC(=O)N[C@H]2CC[C@](F)(CCN3CCc4nc(OCC(F)(F)F)sc4CC3)CC2)no1 [III-264] | 9.60 | < 5.74
Cn1cc2c(C(=O)N[C@H]3CC[C@H](CCN4CCc5sc(CCC(F)(F)F)nc5C4)CC3)cccc2n1 [III-452] | 9.54 | 6.00
Cn1cc2c(C(=O)N[C@H]3CC[C@H](C(O)CN4CCc5ccc(OCC(F)(F)F)nc5CC4)CC3)cccc2n1 (stereo partly drawn) [III-248] | 8.80 | < 5.72
Cc1ncc(CC(=O)N[C@H]2CC[C@](F)(CCN3CCc4nc(OCC(C)(F)F)sc4CC3)CC2)s1 [II-070] | 9.36 | 6.09
Cn1cc2c(C(=O)N[C@H]3CC[C@H](CCN4CCc5nc(OCC(F)(F)F)sc5CC4)CC3)cccc2n1 [II-046] | 9.70 | 5.92
Cc1ncc(/C=C/C(=O)N[C@H]2CC[C@H](CCN3CCc4nc(OCC(F)(F)F)sc4CC3)CC2)cn1 [II-048] | 9.09 | < 5.77
Cn1cc(OCC(=O)N[C@H]2CC[C@H](CCN3CCc4sc(OCC(C)(F)F)nc4C3)CC2)cn1 [III-573] | 9.49 | 6.46
CN1Cc2c(C(=O)N[C@H]3CC[C@H](CCN4CCc5sc(OCC(F)(F)F)nc5C4)CC3)cccc2C1=O [III-610] | 10.11 | 6.48
CC(F)(F)COc1nc2c(s1)CCN(CC[C@H]1CC[C@H](NC(=O)c3cccc4ncccc34)CC1)C2 [Compound I-071] | 9.89 | 6.82
Cc1ncc(OCC(=O)N[C@H]2CC[C@](F)(CCN3CCc4nc(OCC(F)(F)F)sc4CC3)CC2)cn1 [III-254] | 9.37 | 6.24
Cc1ncc(CC(=O)N[C@H]2CC[C@H](C(F)CN3CCc4ccc(OCC(F)(F)F)nc4CC3)CC2)s1 (stereo partly drawn) [III-216] | 8.89 | < 5.77
Cc1cc(OCC(=O)N[C@H]2CC[C@H](CCN3CCc4ccc(OCC(F)(F)F)nc4CC3)CC2)no1 [II-078] | 10.12 | < 5.74
Cn1cc2c(C(=O)N[C@H]3CC[C@H](CCN4CCc5nc(OC6CC(F)(F)C6)sc5CC4)CC3)cccc2n1 [III-244] | 9.62 | < 5.72
Cn1cc(CC(=O)N[C@H]2CC[C@H](CCN3CCc4sc(COC(F)(F)F)nc4C3)CC2)cn1 [III-622] | 8.92 | < 5.74
O=C(N[C@H]1CC[C@H](CCN2CCc3cnc(CC4CC4)nc3C2)CC1)c1cccc2ncccc12 [Compound I-133] | 8.10 | < 5.77
Cn1cc2c(C(=O)N[C@H]3CC[C@H](CCN4CCc5sc(OCC(C)(F)F)nc5C4)CC3)ccc(F)c2n1 [III-666] | 9.70 | 6.68
O=C(N[C@H]1C[C@@H]2[C@@H](CCN3CCc4sc(OCC(F)F)nc4C3)[C@@H]2C1)c1cccc2ncccc12 [Compound I-124] | 9.04 | 6.07
Cc1ncccc1C(=O)N[C@H]1CC[C@](F)(CCN2CCc3nc(OCC(F)(F)F)sc3CC2)CC1 [III-252] | 9.37 | 6.23
Cc1ncc(CC(=O)N[C@H]2CC[C@H](CCN3CCc4ccc(OCC(F)(F)F)nc4CC3)OC2)o1 [III-231] | 9.15 | 6.31
CC(C)Oc1ccc2c(n1)CCN(CC[C@H]1CC[C@H](NC(=O)c3cccc4nn(C)cc34)CC1)CC2 [II-050] | 9.29 | < 5.74
O=C(N[C@H]1CC[C@H](CCN2CCc3sc(OCC(F)(F)F)nc3C2)OC1)c1cccc2ncccc12 [Compound I-142] | 9.14 | 6.19

SMILES | pKi [1] | pKi [2]
Cn1cc2c(C(=O)N[C@H]3CC[C@H](CCN4CCc5nc(O[C@H]6C[C@H](F)C6)sc5CC4)CC3)cccc2n1 [III-158] | 9.47 | < 5.77
Cc1ncc(CC(=O)N[C@H]2CC[C@H](CCN3CCc4ccc(N5CC(F)(F)C5)nc4CC3)CC2)s1 [II-066] | 9.08 | < 5.72
Cc1ncc(CC(=O)N[C@H]2CC[C@H](CCN3CCc4nc(OCC(C)(F)F)sc4CC3)CC2)o1 [II-029] | 9.92 | 5.89
CC(Oc1nc2c(s1)CCN(CC[C@H]1CC[C@H](NC(=O)c3cccc4nn(C)cc34)CC1)CC2)C(F)(F)F (stereo partly drawn) [III-063] | 9.89 | < 5.72
Cc1nnc(CC(=O)N[C@H]2CC[C@](F)(CCN3CCc4ccc(OCC(F)(F)F)nc4CC3)CC2)o1 [III-082] | 9.35 | 6.39
Cc1nc(CC(=O)N[C@H]2CC[C@H](CCN3CCc4sc(N5CC(F)(F)C5)nc4C3)CC2)no1 [III-512] | 9.05 | 5.96
O=C(N[C@H]1CC[C@H](CCN2CCc3nc(-c4ccccc4)sc3C2)CC1)c1cccc2ncccc12 [Compound I-018] | 7.92 | < 5.77
CC1c2nc(OCC(F)F)sc2CCN1CC[C@H]1CC[C@H](NC(=O)c2cccc3ncccc23)CC1 (stereo partly drawn) [Compound I-101] | 8.09 | < 5.77
Cc1ncc(CC(=O)N[C@H]2CC[C@H](CCN3CCc4ccc(OCC(F)F)nc4CC3)CC2)s1 [II-005] | 10.07 | 6.37
CCN1Cc2c(C(=O)N[C@H]3CC[C@H](CCN4CCc5sc(CCC(F)(F)F)nc5C4)CC3)cccc2C1=O [III-701] | 9.82 | 6.72
Cc1cnc(CC(=O)N[C@H]2CC[C@H](CCN3CCc4ccc(OCC(F)(F)F)nc4CC3)OC2)o1 [III-234] | 9.11 | 6.34
Cc1cnc(CC(=O)N[C@H]2CC[C@](F)(CCN3CCc4nc(OCC(F)(F)F)sc4CC3)CC2)o1 [III-266] | 9.82 | < 5.74
Cn1cc2c(C(=O)N[C@H]3CC[C@H](CCN4CCc5cnc(CCC(F)(F)F)nc5CC4)CC3)cccc2n1 [II-072] | 9.32 | < 5.74
Cn1cc2c(C(=O)N[C@H]3CC[C@H](CCN4CCc5nc(OCC(F)F)sc5CC4)CC3)cccc2n1 [II-026] | 9.70 | < 5.77
Cn1cc2c(C(=O)N[C@H]3CC[C@H](CCN4CCc5ccc(C6CC6)nc5CC4)CC3)cccc2n1 [III-074] | 9.18 | < 5.74
Cc1cnc(CC(=O)N[C@H]2CC[C@H](CCN3CCc4sc(CCC(F)(F)F)nc4C3)CC2)o1 [III-698] | 9.28 | 6.11
Cc1ncccc1C(=O)N[C@H]1CC[C@H](CCN2CCc3sc(OCC(F)(F)F)nc3C2)CC1 [III-603] | 9.36 | 6.21
CC(F)(F)COc1nc2c(s1)CCN(CC[C@H]1CC[C@H](NS(=O)(=O)c3cccc(F)c3)CC1)C2 [III-576] | 9.36 | 7.10
Cc1ncc(OCC(=O)N[C@H]2CC[C@H](CCN3CCc4nc(OCC(F)(F)F)sc4CC3)OC2)cn1 [III-165] | 9.09 | 6.17
O=C(CCC(F)(F)F)N[C@H]1CC[C@H](CCN2CCc3sc(N4CC(F)(F)C4)nc3C2)CC1 [III-580] | 9.60 | 6.27
O=C(N[C@H]1CC[C@H](CCN2CCc3sc(C4=CCOCC4)nc3C2)CC1)c1cccc2ncccc12 [Compound I-001] | 7.96 | < 5.77
O=C(N[C@H]1CC[C@H](CCN2CCc3cn(Cc4ccccc4)nc3C2)CC1)c1cccc2ncccc12 [Compound I-113] | 8.33 | < 5.77
